Reference: patent US20240016881A1, “Coronavirus Therapy” (priority 2020, published 2024)
“And” between values parts separate entries of the source, which are not always exact repeats. Equal entries are not always repeated. Where no end group is shown, it is not given here.

What was measured:
[1] = test system: soluble ACE2; experiment: Soluble ACE2 ELISA in cultures of human islet cells from Type 2 diabetes tissue donors; format: cell-based; conditions: for % reduction soluble ACE2 100-(T/Cx100): vs control cultures
Protocol: The inventor next measured the effect of NDX-90 peptide on soluble ACE2 levels in cultures of human islet cells from Type 2 diabetes tissue donors. Human pancreatic islet cells were cultured in 24-well tissue culture plates. Two series of cultures were set up. NDX-90 peptide solution was added to one series and an equivalent amount of culture medium was added to the second series. Supernatant samples were removed from the test and control cultures at 4, 24 and 48 hours after addition of the treatment. Supernatant samples were removed only once from each test and control well for each time point. The samples were tested for soluble ACE2 by the use of a commercial ELISA kit according to the manufacturer's instructions.

[2] = test system: isolated rat islet cultures; experiment: Glucagon levels secreted from isolated rat islet cultures, medium plus NDX-90 vs medium alone; format: cell-based; conditions: for Glucagon level (pg/ml) Medium plus NDX-90: NDX-90 1 μg/ml, 11 mmol/L glucose; for Percentage reduction of glucagon secretion: vs medium alone
Protocol: Isolated islets were suspended in RPMI 1640 containing 11 mmol/L (200 mg/dL) glucose and 10% FCS. The glucose concentration simulates a diabetic environment. NDX-90 was dissolved in the culture medium and added to the appropriate wells at a final concentration of 1 μg/ml. After the specified incubation times, samples were removed for glucagon measurements using Quantikine ELISA Immunoassay (R&D Systems).
The inventor measured glucagon levels secreted from isolated rat islet cultures, to determine whether NDX-90 was capable of reducing glucagon levels.

[3] = Fasting plasma glucagon in subjects with Type 2 diabetes treated with NDX-90 peptide; format: in vivo, human
Description: The inventor then measured the effect of NDX-90 peptide treatment over several months on fasting plasma glucagon levels in subjects with Type 2 diabetes.

[4] = test system: buccal tissue culture inserts; experiment: Buccal tissue permeability (cell permeation, HPLC peak area of supernatant); format: in vitro ADME
Protocol: Buccal tissue culture inserts were transferred from the original tissue culture 24-well plates (maintained at 4° C. in sealed bags containing 5% CO2) under sterile conditions into wells of a fresh 24-well plate containing 1.0 ml serum free medium pre-warmed to 37° C. The plate was incubated in a humidified incubator at 37° C. in a 5% CO2 atmosphere for one hour as a pre-equilibration procedure prior to dosing. After removal from the incubator, any culture medium over the surface of the tissue was carefully removed and replaced with 40 μL of appropriately diluted peptide solution in serum free culture medium. The plate was incubated for further 30 minutes at 37° C. in a 5% CO2 atmosphere. The plate was removed from the incubator and supernatant samples were taken and analysed by HPLC. The main peak areas of the supernatants were compared to those of the pre-incubation stock samples.
The inventor next measured buccal tissue permeability of NDX-90 peptide, to determine its uptake.

[5] = ELISA binding of NDX-90 peptide to cardiolipin-coated microtitre plate
Description: Each mean and standard deviation is for three observations.

## QQYNSYPLT (also: dimer) [NDX-90, b142 says NDX-90 is a dimer]
[1]; 4 hours
  % reduction soluble ACE2 100-(T/Cx100): 5.3%
[1]; 4 hours, listed as NDX-90 Peptide
  % reduction soluble ACE2 100-(T/Cx100): 5.3%
[1]; 24 hours
  % reduction soluble ACE2 100-(T/Cx100): 6.25%
[1]; 24 hours, listed as NDX-90 Peptide
  % reduction soluble ACE2 100-(T/Cx100): 6.25%
[1]; 48 hours
  Reduction of soluble ACE2: No further reduction
[2]; 4 hours
  Difference (pg/ml) medium alone vs medium plus NDX-90: 203.0 pg/mL
  Glucagon level (pg/ml) Medium plus NDX-90: 419.3 ± 2.5 pg/mL
  Percentage reduction of glucagon secretion: 32% and 32.4%
[2]; 24 hours
  Difference (pg/ml) medium alone vs medium plus NDX-90: 102.9 pg/mL
  Glucagon level (pg/ml) Medium plus NDX-90: 149.6 ± 6.7 pg/mL
  Percentage reduction of glucagon secretion: 40.9%
[2]; 48 hours
  Glucagon level (pg/ml) Medium plus NDX-90: 63.4 ± 1.3 pg/mL
  Percentage reduction of glucagon secretion: 0%
[3]; 9.61 pg/ml relative to literature excess of 12.2 pg/ml in Type 2 diabetes vs nondiabetic controls
  Improvement in fasting glucagon towards normality: 78.8%
[3]; day 1 vs mean of days 43, 99 and 113, P = 0.009, listed as NDX-90 peptide
  Difference baseline vs treated fasting plasma glucagon: 9.61 pg/mL
[3]; mean baseline on day 1, n = 23, Type 2 diabetes
  Baseline ± sd fasting plasma glucagon: 103 ± 38.3 pg/mL
[3]; mean of measurements on days 43, 99 and 113, n = 23, Type 2 diabetes
  Treated ± sd fasting plasma glucagon: 93.47 ± 32.3 pg/mL
[4]
  Transmissibility across / uptake by buccal tissue: efficient uptake
[4]; Table 5 screening, 30 minutes
  Transmissibility %: 94.1%
[4]; Table 5 screening, stock before incubation
  Peak Area by HPLC of Peptides in solution Pre-overlay: 4142
[4]; Table 5 screening, supernatant after 30 minutes at 37° C.
  Peak Area by HPLC of Peptides in solution Post-overlay: 243
[4]; Table 6, replicate culture 1
  Peak Area by HPLC R1: 276
  Transmissibility T % (R1): 93.3%
[4]; Table 6, replicate culture 3
  Peak Area by HPLC R3: 0
  Transmissibility T % (R3): 100%
[4]; Table 6 triplicate cultures, stock
  Peak Area by HPLC Pre-overlay: 4142
[5]
  Binding to cardiolipin: has the capacity to bind to cardiolipin
  Ratio Test/Control (cardiolipin / alcohol optical density): 2.23
[5]; mean and standard deviation for three observations
  Optical density reading in ELISA, cardiolipin-coated plate: 0.254 ± 0.012
